Data as given in patent US7998991B2, “Neurotherapeutic treatment for sexual dysfunction” (Revaax Pharmaceuticals, LLC, priority 2001, dated 2011).

How the values were obtained:
[1] = system: monoamine transporters; assay: Binding of CLAV to monoamine transporters
[2] = system: well known signaling receptors or transporters; assay: Binding of CLAV to well known signaling receptors or transporters
[3] = system: cotton-top tamarin (Saguinus oedipus); assay: Scoring of erections, mounts and female solicitations in cotton-top tamarins; assay type: in vivo; conditions: oral 1 mg/kg
[4] = system: nucleus accumbens; assay: Microdialysis of extracellular neurotransmitter levels after IP CLAV; assay type: in vivo, Sprague Dawley rats
Description: To test this hypothesis, extracellular neurotransmitter levels in the area of the nucleus accumbens were assessed with microdialysis following CLAV treatment. The accumbens is part of the limbic forebrain best now for its association with the pathophysiology of schizophrenia and drug addiction but also thought to be involved in sensitization to early life trauma leading to the anxiety disorder PTSD or post traumatic stress disorder ([…] and Bremner 1999). Ten male, Sprague Dawley rats were anesthetized with sodium pentobarbital (50 mg/kg) and implanted with a unilateral microdialysis guide cannula aimed at the nucleus accumbens. Two days after recovery from surgery a microdialysis probe (2 mm) was lowered to the area and connected to an infusion pump through Tygon tubing. The dialysate was artificial CSF at pH 7.4 delivered at a flow rate of 2 μl/min. The first 120 min of dialysate will be discarded. Thereafter, samples were collected at 30 min intervals prior to and following IP CLAV treatment (10 μg/kg). Samples were collected into microfuge tubes containing 5 μl of 0.16 N perchloric acid to stabilize catecholamines. At the end of the study, animals were sacrificed and the brains prepared for histology to verify the site of the microdialysis probe.

[5] = Pharmacokinetic assessment of CLAV run by IVEDCO; conditions: from plasma 2.5 μg/ml and CSF/plasma ratio 0.25
Description: This treatment regimen of three doses each day for two consecutive days was chosen to acclimate the animals to the treatment procedure (day 1) and to achieve steady-state blood concentration before testing (day 2). A pharmacokinetic assessment of CLAV was run by IVEDCO (Irving Tex.) which estimated an oral dose of 1 mg/kg every three hrs would produce steady-state levels yielding an average plasma concentration of 2.5 μg/ml at the time of testing. Since the CSF/plasma ratio is 0.25 the estimated concentration in the brain would be around 0.3 μM. Given the rate of clearance of CLAV, treatments from day 1 should not have contributed to blood levels of drug on day 2.

[6] = system: cotton-top tamarin (Saguinus oedipus); assay: Novel object test for anxiolytic activity in cotton-top tamarins; assay type: in vivo; conditions: oral 1 mg/kg, three doses a day for two days
Description: Eight male/female pairs of tamarins with long standing pair bonds were tested following oral treatments of CLAV and vehicle (VEH) control. There were no offspring since males were vasectomized. Both members of a pair received the same treatments at the same times. Each animal served as its own control being tested both with CLAV or VEH one week apart. The treatment schedule was counter-balanced. CLAV was dissolved in water and dispensed onto a small cookie in a volume of 100 μl. A single CLAV cookie was given to each member of a pair at an approximate dose of 1 mg/kg body weight. Animals were given three CLAV cookies each day for two consecutive days. The 1st cookie was given at 8:00 AM prior to the morning feeding, the 2nd at 11:00 AM prior to the noon feeding and the 3rd at 2:00 PM prior to the late afternoon snack. All animals were scored for anti-anxiety activity 60 min after the 3rd treatment on the second day.
Two observers blind to the treatment independently scored behavioral activity. To elicit anxious/stressful behavior a novel object was placed into the home cage. A different novel object was used for each test session and the object presentation was counter-balanced. Following the presentation of the novel object animals were scored for a duration of 15 min for: 1) latency to approach and latency to touch the object, 2) time spent in contact or proximity with the object, 3) face and head movement (frowns, head shakes and head cocks that reflect tension), 4) scratching (a validated measure of anxiety in macaques), 5) piloerection (autonomic stress response), and 6) visual scanning (nervous vigilance).

[7] = target: T1, monoamine oxidase A (Homo sapiens, UniProt P21397); assay: Binding of CLAV to monoamine oxidase A
T1 sequence (P21397 1-527): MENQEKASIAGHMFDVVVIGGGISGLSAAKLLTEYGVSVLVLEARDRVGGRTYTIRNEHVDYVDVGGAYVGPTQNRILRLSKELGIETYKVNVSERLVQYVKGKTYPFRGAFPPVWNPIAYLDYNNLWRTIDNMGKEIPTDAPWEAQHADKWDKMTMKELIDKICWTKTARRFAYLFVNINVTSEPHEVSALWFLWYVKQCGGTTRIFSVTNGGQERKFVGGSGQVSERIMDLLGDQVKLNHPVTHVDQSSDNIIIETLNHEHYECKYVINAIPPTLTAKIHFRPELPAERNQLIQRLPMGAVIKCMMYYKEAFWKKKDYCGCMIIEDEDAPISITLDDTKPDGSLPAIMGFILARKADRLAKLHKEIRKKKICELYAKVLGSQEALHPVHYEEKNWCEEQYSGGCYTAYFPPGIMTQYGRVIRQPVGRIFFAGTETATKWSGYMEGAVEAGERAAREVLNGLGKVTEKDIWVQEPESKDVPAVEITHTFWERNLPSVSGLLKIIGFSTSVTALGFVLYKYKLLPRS

[8] = system: prefrontal cortex and nucleus accumbens; conditions: Cartmell et al., 2000b; Hertel et al. 1997; cited from earlier work

With `O=C(O)[C@H]1/C(=C/CO)O[C@@H]2CC(=O)N21` [CLAV, clavulanic acid] as the molecule, how does the “binding to monoamine transporters” value [1] read?
The value was “Neither the monoamine transporters nor the degradative enzyme monoamine oxidase A show binding”.

And the “binding to well known signaling receptors or transporters” value [2]?
The value was “does not appear to bind”.

And the “females showing solicitation behaviors” value ([3]; eight females, three doses a day for two days)?
Its value is “Two of the eight”.

And the “males showing at least one erection in 15 min” value ([3]; eight males, three doses a day for two days)?
The value was “All eight”.

What about the “mean erections in 15 min” value ([3]; males, three doses a day for two days) of the same molecule?
The value was 2.25 erections in 15 min.

And the rate of erections ([3]; males, p<0.02 vs VEH)?
Its rate of erections is 9.0 erections per hour.

And the “mounting behavior, CLAV vs VEH” value ([3]; three doses a day for two days)?
Its value is “no significant difference”.

And the DOPAC levels ([4]; IP 10 μg/kg, AC-1 to AC-5)?
Its DOPAC levels is “only rose in two cases”.

What about the “changes in dopamine and serotonin neurotransmission, probe outside the nucleus accumbens” value ([4]; IP 10 μg/kg, lateral ventricle, bed nucleus of stria terminalis, head of the caudate, ventrolateral thalamus) of the same molecule?
Its value is “little if any changes”.

And the “dopamine metabolite 3,4-dihydroxyphenylacetic acid (DOPAC) over time” value ([4]; animal AC-1, IP 10 μg/kg)?
Its value is “robust increase”.

And the “dopamine metabolite homovanillic acid (HVA) over time” value ([4]; animal AC-1, IP 10 μg/kg)?
The value was “robust increase”.

What about the dopamine over time ([4]; animal AC-1, IP 10 μg/kg) of the same molecule?
The dopamine over time was “modest decrease”.

What about the “extracellular levels of serotonin over time” value ([4]; animal AC-1, IP 10 μg/kg) of the same molecule?
The value was “increase”.

What about the “serotonin metabolite 5-hydroxyindoleacetic acid (HIAA) over time” value ([4]; animal AC-1, IP 10 μg/kg) of the same molecule?
The value was “robust increase”.

What about the “estimated concentration in the brain” value [5] of the same molecule?
Its value is “around 0.3 μM”.

And the “latency to approach the novel object, CLAV vs VEH” value [6]?
Its value is “no significant difference”.

And the “latency to touch the novel object, CLAV vs VEH” value [6]?
Its value is “no significant difference”.

What about the “time spent in proximity to the object, CLAV vs VEH” value [6] of the same molecule?
The value was “Neither was there any difference”.

What about the “combined measures of anxious/nervous behaviors (3, 4, 5 & 6)” value ([6]; scored 15 min, 60 min after 3rd treatment on day 2, p<0.05 vs VEH) of the same molecule?
Its value is 12.7+4.8.

What about the “binding to monoamine oxidase A” value [7] of the same molecule?
Its value is “Neither the monoamine transporters nor the degradative enzyme monoamine oxidase A show binding”.

With `Cc1nc2n(c(=O)c1CCN1CCC(c3noc4cc(F)ccc34)CC1)CCCC2` [risperidone] as the molecule, how does the “dopamine and serotonin neurotransmission in the prefrontal cortex and nucleus accumbens” value [8] read?
Its value is “increase”.
